Like-named read-outs stand apart in the source and are kept apart here.
Assays:
liver fibrosis = details: rats with carbon tetrachloride induced cirrhosis; cited from earlier work
[1] = test system: HBV-related postnecrotic cirrhosis; details: double-blind controlled trial, 100 patients; cited from earlier work
chronic Hepatitis B = details: 1 mg a day orally for 5 days-a-week over 6 months, cited from earlier work
[2] = ingested more than 0.8 mg/kg; cited from earlier work
[3] = cited from earlier work; for Peak blood level (Cmax) / Exposure (area under the curve) / terminal half-life: fasted healthy volunteers; for mean Cmax: healthy adults, capsules orally
HBV GT C = test: In vitro anti-HBV efficacy in HBV-infected PXB-cells; format: cell-based; details: for Extracellular HBeAg: Day 27, 10 fold diluted sample
Protocol: Materials & Methods: PXB-cells was infected with HBV GT C. […] The anti-HBV therapeutic efficacy was measured by the analysis of extracellular HBV DNA, HBsAg, HBeAg, h-Alb, and intracellular HBV DNA/cceDNA levels. Entecavir was used as the positive control. The hepatocytes isolated from 3 mice were combined to seed culture plate. The cell density of mixed cell was 7.37×10^6 cells/mL. PXB-cells® are the fresh hepatocytes which are isolated from PXB-mice. Cells viability after isolation: >80%. Donor Hepatocytes were purchased from Corning, Incorporated (Tewksbury, Mass., USA), Lot: BD195 ([…]). […] Entecavir was purchased from Santa-cruz, Lot: 10914, Concentration: 1 mM. Plates was observed under microscopy and photographed.

COc1cc2c(c(OC)c1OC)-c1ccc(OC)c(=O)cc1[C@@H](NC(C)=O)CC2 [Colchicine, N [5,6,7,9-tetrahydro-1,2,3,10-tetratmethoxy 9-oxobenzo[a]heptalen-7-yl], (S)-acetamide]
liver fibrosis (liver fibrosis): decrease liver fibrosis | effect in the treatment of HBV-related postnecrotic cirrhosis [1]: no effect | patients failed (response rate) (chronic Hepatitis B; pilot study): 3 of 7 | sustained response, treated patients (chronic Hepatitis B; two-center trial, 4 of 6 treated patients): 66.6% | mortality [2]: 100% | Peak blood level (Cmax) ([3]; high-dose (1.2 mg followed by 0.6 mg every hour for 6 h; 4.8 mg total)): 6.84 ng/mL | Exposure (area under the curve) ([3]; high-dose (4.8 mg total)): 118.2 ng/h/mL | terminal half-life ([3]; high-dose (4.8 mg total)): 31.4 h | Peak blood level (Cmax) ([3]; low-dose (1.2 mg followed by 0.6 mg in 1 h; 1.8 mg total)): 6.19 ng/mL | Exposure (area under the curve) ([3]; low-dose (1.8 mg total)): 52.1 ng/h/mL | terminal half-life ([3]; low-dose (1.8 mg total)): 23.6 h | Exposure (area under the curve) ([3]; single dose (0.6 mg)): 14.1 ng/h/mL | terminal half-life ([3]; single dose (0.6 mg)): 6.36 h | mean Cmax ([3]; 0.6 mg single dose): 3 ng/mL | mean Cmax ([3]; 1.0 mg single dose): 6.50 ± 1.03 ng/mL | Absolute bioavailability ([3]; human, in vivo): approximately 45% | Extracellular HBV DNA (HBV GT C; Colchicine 1 nM, Day 27): 7.06 Log copies/mL | Extracellular HBsAg (HBV GT C; Colchicine 1 nM, Day 27): 23.1 IU/mL | Intracellular HBV DNA (HBV GT C; Colchicine 1 nM, Day 27): 250511 copies/100 ng DNA | Intracellular cccDNA (HBV GT C; Colchicine 1 nM, Day 27): 217 copies/100 ng DNA | Extracellular HBeAg (HBV GT C; Colchicine 1 nM): 14.7 C.O.I | Extracellular HBV DNA (HBV GT C; Colchicine 2 nM, Day 27): 7.06 Log copies/mL | Extracellular HBsAg (HBV GT C; Colchicine 2 nM, Day 27): 23.5 IU/mL | Intracellular HBV DNA (HBV GT C; Colchicine 2 nM, Day 27): 235131 copies/100 ng DNA | Intracellular cccDNA (HBV GT C; Colchicine 2 nM, Day 27): 207 copies/100 ng DNA | Extracellular HBeAg (HBV GT C; Colchicine 2 nM): 16.2 C.O.I | Extracellular HBV DNA (HBV GT C; Colchicine 3.9 nM, Day 27): 7.16 Log copies/mL | Extracellular HBsAg (HBV GT C; Colchicine 3.9 nM, Day 27): 26.7 IU/mL | Intracellular HBV DNA (HBV GT C; Colchicine 3.9 nM, Day 27): 282895 copies/100 ng DNA | Intracellular cccDNA (HBV GT C; Colchicine 3.9 nM, Day 27): 247 copies/100 ng DNA | Extracellular HBeAg (HBV GT C; Colchicine 3.9 nM): 19.2 C.O.I | Extracellular HBV DNA (HBV GT C; Colchicine 7.8 nM, Day 27): 7.06 Log copies/mL | Extracellular HBsAg (HBV GT C; Colchicine 7.8 nM, Day 27): 25.5 IU/mL | Intracellular HBV DNA (HBV GT C; Colchicine 7.8 nM, Day 27): 270324 copies/100 ng DNA | Intracellular cccDNA (HBV GT C; Colchicine 7.8 nM, Day 27): 227 copies/100 ng DNA | Extracellular HBeAg (HBV GT C; Colchicine 7.8 nM): 17.4 C.O.I | Extracellular HBV DNA (HBV GT C; Colchicine 15.6 nM, Day 27): 6.86 Log copies/mL | Extracellular HBsAg (HBV GT C; Colchicine 15.6 nM, Day 27): 25.2 IU/mL | Intracellular HBV DNA (HBV GT C; Colchicine 15.6 nM, Day 27): 256994 copies/100 ng DNA | Intracellular cccDNA (HBV GT C; Colchicine 15.6 nM, Day 27): 261 copies/100 ng DNA | Extracellular HBeAg (HBV GT C; Colchicine 15.6 nM): 16.3 C.O.I | Extracellular HBV DNA (HBV GT C; Colchicine 31.3 nM, Day 27): 6.06 Log copies/mL | Extracellular HBsAg (HBV GT C; Colchicine 31.3 nM, Day 27): 2.17 IU/mL | Intracellular HBV DNA (HBV GT C; Colchicine 31.3 nM, Day 27): 52249 copies/100 ng DNA | Intracellular cccDNA (HBV GT C; Colchicine 31.3 nM, Day 27): 80 copies/100 ng DNA | Extracellular HBeAg (HBV GT C; Colchicine 31.3 nM): 3.6 C.O.I | Extracellular HBV DNA (HBV GT C; Colchicine 62.5 nM, Day 27): 4.86 Log copies/mL | Extracellular HBsAg (HBV GT C; Colchicine 62.5 nM, Day 27): 0.12 IU/mL | Intracellular HBV DNA (HBV GT C; Colchicine 62.5 nM, Day 27): 9638 copies/100 ng DNA | Intracellular cccDNA (HBV GT C; Colchicine 62.5 nM, Day 27): + | Extracellular HBeAg (HBV GT C; Colchicine 62.5 nM): 0.7 C.O.I | Extracellular HBV DNA (HBV GT C; Colchicine 125 nM, Day 27): 4.86 Log copies/mL | Extracellular HBsAg (HBV GT C; Colchicine 125 nM, Day 27): <0.05 IU/mL | Intracellular HBV DNA (HBV GT C; Colchicine 125 nM, Day 27): 8341 copies/100 ng DNA | Intracellular cccDNA (HBV GT C; Colchicine 125 nM, Day 27): + | Extracellular HBeAg (HBV GT C; Colchicine 125 nM): 0.3 C.O.I | Extracellular HBV DNA (HBV GT C; Colchicine 250 nM, Day 27): 4.86 Log copies/mL | Extracellular HBsAg (HBV GT C; Colchicine 250 nM, Day 27): <0.05 IU/mL | Intracellular HBV DNA (HBV GT C; Colchicine 250 nM, Day 27): 9187 copies/100 ng DNA | Intracellular cccDNA (HBV GT C; Colchicine 250 nM, Day 27): + | Extracellular HBeAg (HBV GT C; Colchicine 250 nM): 0.2 C.O.I | Extracellular HBV DNA (HBV GT C; Colchicine 500 nM, Day 27): 4.86 Log copies/mL | Extracellular HBsAg (HBV GT C; Colchicine 500 nM, Day 27): <0.05 IU/mL | Intracellular HBV DNA (HBV GT C; Colchicine 500 nM, Day 27): 9019 copies/100 ng DNA | Intracellular cccDNA (HBV GT C; Colchicine 500 nM, Day 27): + | Extracellular HBeAg (HBV GT C; Colchicine 500 nM): 0.2 C.O.I | Extracellular HBV DNA (HBV GT C; Colchicine 1000 nM, Day 27): 4.86 Log copies/mL | Extracellular HBsAg (HBV GT C; Colchicine 1000 nM, Day 27): <0.05 IU/mL | Intracellular HBV DNA (HBV GT C; Colchicine 1000 nM, Day 27): 8717 copies/100 ng DNA | Intracellular cccDNA (HBV GT C; Colchicine 1000 nM, Day 27): 29 copies/100 ng DNA | Extracellular HBeAg (HBV GT C; Colchicine 1000 nM): 0.2 C.O.I | anti-HBV efficacy (HBV GT C; HBV-infected PXB-cells, Day 27): anti-HBV efficacy in a dose dependent manner
